Results: US10131652B2, “Pyrimidinyloxy benzene derivatives as herbicides” (E. I. DU PONT DE NEMOURS AND COMPANY, priority 2014, dated 2018)
Read-outs that look alike come from different tables or passages of the source.

Legend:
Test in all cases: Test D pre-/postemergence plant response
Type in all cases: in vivo
[1] = test system: pigweed (Amaranthus retroflexus); conditions: Amaranthus retroflexus; for pest or weed control at 16 g/ha: 16 g ai/ha; for pest or weed control at 31 g/ha: 31 g ai/ha; for pest or weed control at 62 g/ha: 62 g ai/ha; for pest or weed control at 125 g/ha: 125 g ai/ha
Outline: (§1)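 Preemergence: seeds in loam/sand blend treated with test chemicals in non-phytotoxic solvent with surfactant; postemergence: plants at 2–18 cm (1- to 4-leaf stage) in peat-based medium sprayed likewise. Greenhouse 13 to 15 days, then visual rating vs controls, 0 (no effect) to 100 (complete control).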

[2] = test system: giant foxtail (Setaria faberii); conditions: Setaria faberi; for pest or weed control at 16 g/ha: 16 g ai/ha; for pest or weed control at 31 g/ha: 31 g ai/ha; for pest or weed control at 62 g/ha: 62 g ai/ha; for pest or weed control at 125 g/ha: 125 g ai/ha
Outline: as §1

[3] = test system: ragweed (common ragweed, Ambrosia elatior); conditions: Ambrosia artemisiifolia; for pest or weed control at 16 g/ha: 16 g ai/ha; for pest or weed control at 31 g/ha: 31 g ai/ha; for pest or weed control at 62 g/ha: 62 g ai/ha; for pest or weed control at 125 g/ha: 125 g ai/ha
Outline: as §1

[4] = test system: blackgrass (Alopecurus myosuroides); conditions: Alopecurus myosuroides; for pest or weed control at 16 g/ha: 16 g ai/ha; for pest or weed control at 31 g/ha: 31 g ai/ha; for pest or weed control at 62 g/ha: 62 g ai/ha; for pest or weed control at 125 g/ha: 125 g ai/ha
Outline: as §1

[5] = test system: oilseed rape (Brassica napus); conditions: Brassica napus; for plant injury at 16 g/ha: 16 g ai/ha; for plant injury at 31 g/ha: 31 g ai/ha; for plant injury at 62 g/ha: 62 g ai/ha; for plant injury at 125 g/ha: 125 g ai/ha
Outline: as §1

[6] = test system: barnyardgrass (Echinochloa crus-galli); conditions: Echinochloa crus-galli; for pest or weed control at 16 g/ha: 16 g ai/ha; for pest or weed control at 62 g/ha: 62 g ai/ha; for pest or weed control at 125 g/ha: 125 g ai/ha
Outline: as §1

[7] = post-emergence, Postemergence, scale 0 to 100 (0 no effect, 100 complete control), read-out: Pigweed plant response rating
[8] = post-emergence, Postemergence, scale 0 to 100, 0 no effect, 100 complete control, read-out: Plant response rating, Pigweed
[9] = pre-emergence, Preemergence, scale 0 to 100 (0 no effect, 100 complete control), read-out: Plant response rating, Pigweed
[10] = post-emergence, Postemergence, scale 0 to 100 (0 no effect, 100 complete control), read-out: Foxtail, Giant plant response rating
[11] = post-emergence, Postemergence, scale 0 to 100, 0 no effect, 100 complete control, read-out: Plant response rating, Foxtail, Giant
[12] = pre-emergence, Preemergence, scale 0 to 100 (0 no effect, 100 complete control), read-out: Plant response rating, Foxtail, Giant
[13] = post-emergence, Postemergence, scale 0 to 100 (0 no effect, 100 complete control), read-out: Ragweed plant response rating
[14] = post-emergence, Postemergence, scale 0 to 100, 0 no effect, 100 complete control, read-out: Plant response rating, Ragweed
[15] = pre-emergence, Preemergence, scale 0 to 100 (0 no effect, 100 complete control), read-out: Plant response rating, Ragweed
[16] = post-emergence, Postemergence, scale 0 to 100 (0 no effect, 100 complete control), read-out: Blackgrass plant response rating
[17] = post-emergence, Postemergence, scale 0 to 100, 0 no effect, 100 complete control, read-out: Plant response rating, Blackgrass
[18] = pre-emergence, Preemergence, scale 0 to 100 (0 no effect, 100 complete control), read-out: Plant response rating, Blackgrass
[19] = post-emergence, Postemergence, scale 0 to 100 (0 no effect, 100 complete control), read-out: Oilseed Rape plant response rating
[20] = post-emergence, Postemergence, scale 0 to 100, 0 no effect, 100 complete control, read-out: Plant response rating, Oilseed Rape
[21] = pre-emergence, Preemergence, scale 0 to 100 (0 no effect, 100 complete control), read-out: Plant response rating, Oilseed Rape
[22] = post-emergence, Postemergence, scale 0 to 100, 0 no effect, 100 complete control, read-out: Plant response rating, Barnyardgrass
[23] = pre-emergence, Preemergence, read-out: Plant response rating (scale 0 to 100), Barnyardgrass

Fc1cccc(Oc2ncc(Cl)cn2)c1-c1cc(C(F)F)on1 [Compound 55, 5-chloro-2-[2-[5-(difluoromethyl)-3-isoxazolyl]-3-fluorophenoxy]pyrimidine]
pest or weed control at 16 g/ha [1, 7]: 85%
pest or weed control at 31 g/ha [1, 7]: 85%
pest or weed control at 62 g/ha [1, 8]: 98%
pest or weed control at 125 g/ha [1, 8]: 100%
pest or weed control at 125 g/ha ([1]; pre-emergence, Preemergence, read-out: Plant response rating (scale 0 to 100), Pigweed): 100%
pest or weed control at 16 g/ha [1, 9]: 100%
pest or weed control at 31 g/ha [1, 9]: 100%
pest or weed control at 62 g/ha [1, 9]: 100%
pest or weed control at 16 g/ha [2, 10]: 40%
pest or weed control at 31 g/ha [2, 10]: 50%
pest or weed control at 62 g/ha [2, 11]: 40%
pest or weed control at 125 g/ha [2, 11]: 75%
pest or weed control at 125 g/ha ([2]; pre-emergence, Preemergence, read-out: Plant response rating (scale 0 to 100), Foxtail, Giant): 100%
pest or weed control at 16 g/ha [2, 12]: 100%
pest or weed control at 31 g/ha [2, 12]: 100%
pest or weed control at 62 g/ha [2, 12]: 100%
pest or weed control at 16 g/ha [3, 13]: 25%
pest or weed control at 31 g/ha [3, 13]: 40%
pest or weed control at 62 g/ha [3, 14]: 65%
pest or weed control at 125 g/ha [3, 14]: 90%
pest or weed control at 125 g/ha ([3]; pre-emergence, Preemergence, read-out: Plant response rating (scale 0 to 100), Ragweed): 95%
pest or weed control at 16 g/ha [3, 15]: 70%
pest or weed control at 31 g/ha [3, 15]: 75%
pest or weed control at 62 g/ha [3, 15]: 90%
pest or weed control at 16 g/ha [4, 16]: 5%
pest or weed control at 31 g/ha [4, 16]: 10%
pest or weed control at 62 g/ha [4, 17]: 30%
pest or weed control at 125 g/ha [4, 17]: 50%
pest or weed control at 125 g/ha ([4]; pre-emergence, Preemergence, read-out: Plant response rating (scale 0 to 100), Blackgrass): 90%
pest or weed control at 16 g/ha [4, 18]: 15%
pest or weed control at 31 g/ha [4, 18]: 90%
pest or weed control at 62 g/ha [4, 18]: 90%
plant injury at 16 g/ha [5, 19]: 95%
plant injury at 31 g/ha [5, 19]: 95%
plant injury at 62 g/ha [5, 20]: 100%
plant injury at 125 g/ha [5, 20]: 100%
plant injury at 125 g/ha ([5]; pre-emergence, Preemergence, read-out: Plant response rating (scale 0 to 100), Oilseed Rape): 100%
plant injury at 16 g/ha [5, 21]: 100%
plant injury at 31 g/ha [5, 21]: 100%
plant injury at 62 g/ha [5, 21]: 100%
pest or weed control at 16 g/ha ([6]; post-emergence, Postemergence, scale 0 to 100 (0 no effect, 100 complete control), read-out: Barnyardgrass plant response rating): 5%
pest or weed control at 31 g/ha ([6]; post-emergence, Postemergence, 31 g ai/ha, scale 0 to 100 (0 no effect, 100 complete control), read-out: Barnyardgrass plant response rating): 10%
pest or weed control at 62 g/ha [6, 22]: 15%
pest or weed control at 125 g/ha [6, 22]: 15%
pest or weed control at 62 g/ha [6, 23]: 100%
pest or weed control at 125 g/ha [6, 23]: 100%
pest or weed control at 16 g/ha ([6]; pre-emergence, Preemergence, scale 0 to 100 (0 no effect, 100 complete control), read-out: Plant response rating, Barnyardgrass): 25%
